Measured values published in EP2333100B1, “NAD(P)+-cofactor regeneration system und its use” (priority 2009, dated 2011).

Legend:
Format in all cases: biochemical
[1] = target: T1, Glutathion Reduktase aus Saccharomyces cerevisiae (Saccharomyces cerevisiae, UniProt P41921); experiment: NADPH oxidation with DCIP as electron acceptor, tolerance to cholic acid; conditions: remaining activity with 0,1 M Cholsäure, 100% = ohne Cholsäure; 75 µM DCIP, 100 µM NADPH, 50 mM Tris-HCl (pH 8); read-out: Mit 0, 1 M Cholsäure, U/mg Protein (%)
T1 construct: purchased Sigma
T1 sequence (P41921 1-467 isoform P41921-2): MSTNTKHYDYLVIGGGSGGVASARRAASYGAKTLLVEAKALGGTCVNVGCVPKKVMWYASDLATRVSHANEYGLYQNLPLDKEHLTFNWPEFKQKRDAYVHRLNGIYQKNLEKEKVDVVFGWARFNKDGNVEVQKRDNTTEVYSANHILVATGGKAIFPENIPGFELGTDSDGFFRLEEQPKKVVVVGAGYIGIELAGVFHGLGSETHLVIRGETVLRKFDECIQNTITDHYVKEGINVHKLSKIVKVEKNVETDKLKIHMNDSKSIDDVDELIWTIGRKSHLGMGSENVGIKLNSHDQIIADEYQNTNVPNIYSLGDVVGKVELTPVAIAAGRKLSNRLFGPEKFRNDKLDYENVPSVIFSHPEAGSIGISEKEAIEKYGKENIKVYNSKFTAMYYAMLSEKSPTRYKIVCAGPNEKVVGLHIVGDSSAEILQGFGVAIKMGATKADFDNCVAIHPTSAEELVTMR
Method: (§1) Die NADPH-Dehydrogenase Aktivität wurde unter Verwendung von Dichlorphenolindophenol (DCIP) als Substrat bestimmt. Die Reaktion wurde durch Zugabe von Enzym (2-50 µl) zu 1 ml Reaktionsgemisch, enthaltend 50 mM Tris-HCl (pH 8), 75 µM DCIP, 100 µM NADPH mit bzw. ohne 0,1 M Cholsäure gestartet. Die Reduktion von DCIP wurde durch Abnahme der Extinktion bei 600 nm spektrophotometrisch bestimmt. Die Aktivitätseinheit (µM DCIP reduziert/min) wurde mit Hilfe des Extinktions-Coeffizienten von DCIP von 20 mM^-1 cm^-1 bei 600 nm bestimmt.
(§2) Folgende Enzyme wurden getestet: Flavodoxin Reduktase aus E. coli, Reduktase Domäne der CYP102A1 aus Bacillus megaterium; Glutathion Reduktase aus Saccharomyces cerevisiae und Diaphorase aus Clostridium kluyveri. Die Ergebnisse sind in der folgenden Tabelle 2 zusammengestellt.

[2] = target: T2, Flavodoxin Reduktase aus E. coli (EC 1.18.1.2), SEQ ID NO: 26 (Escherichia coli, UniProt P28861); experiment: as above; conditions: remaining activity with 0,1 M Cholsäure, 100% = ohne Cholsäure; 75 µM DCIP, 100 µM NADPH, 50 mM Tris-HCl (pH 8); read-out: Mit 0, 1 M Cholsäure, U/mg Protein (%)
T2 construct: made in house; host or cells: E. coli
Method: as §1, §2

[3] = system: Diaphorase aus Clostridium kluyveri; experiment: as above; conditions: remaining activity with 0,1 M Cholsäure, 100% = ohne Cholsäure; 75 µM DCIP, 100 µM NADPH, 50 mM Tris-HCl (pH 8)
Method: as §1, §2

[4] = target: Reduktase Domäne der CYP102A1 aus Bacillus megaterium (EC 1.6.2.4), SEQ ID NO: 24 (Priestia megaterium, UniProt P14779); experiment: as above; conditions: remaining activity with 0,1 M Cholsäure, 100% = ohne Cholsäure; 75 µM DCIP, 100 µM NADPH, 50 mM Tris-HCl (pH 8); read-out: Mit 0, 1 M Cholsäure, U/mg Protein (%)
Method: as §1, §2

[5] = system: NADPH Dehydrogenase aus Bacillus stearothermophilus Sulfit Reduktase (EC 1.8.1.2), SEQ ID NO: 28; experiment: NADPH oxidation with riboflavin as electron acceptor, tolerance to cholic acid; conditions: activity with 0,1 M Cholsäure, 100% = ohne Cholsäure; 10 µM Riboflavin, 100 µM NADPH, 50 mM Tris-HCl (pH 8)
Method: (§3) Die NADPH-Oxidation unter Verwendung von Riboflavin als Elektronenakzeptor wurde in 1 ml Reaktionsmedium, enthaltend 2-50 µl Enzymlösung, 50 mM Tris-HCl (pH 8), 10 µM Riboflavin, 100 µM NADPH mit und ohne 0,1 M Cholsäure bestimmt. Die Oxidation von NADPH wurde über die Abnahme der Extinktion bei 340 nm spektrophotometrisch aufgezeichnet. Die Aktivitätseinheit (uM NADPH oxidiert/min) wurde mit Hilfes des millimolaren Extinktionscoeffizienten für NADPH von 6,22 mM^-1 cm^-1 bei 340 nm bestimmt.
(§4) Folgende Enzyme wurden getestet: NADPH Dehydrogenase aus Bacillus stearothermophilus Sulfit Reduktase, Flavin-Subunit von Sulfit-Reduktase aus E. coli und NAD(P)H-Flavin Reduktase aus E. coli. Die Ergebnisse sind in folgender Tabelle 3 zusammengefasst: TABELLE 3

[6] = target: T3, NADPH Dehydrogenase aus Sulfit-Reduktase (E. coli); Flavin-Subunit von Sulfit-Reduktase aus E. coli (Escherichia coli, UniProt P38038); experiment: as above; conditions: activity with 0,1 M Cholsäure, 100% = ohne Cholsäure; 10 µM Riboflavin, 100 µM NADPH, 50 mM Tris-HCl (pH 8)
T3 construct: made in house; host or cells: E. coli (cell lysate)
Method: as §3, §4

[7] = target: T4, NAD(P)H-Flavin Reduktase aus E. coli (EC 1.5.1.29 / 1.16.1.3), SEQ ID NO: 30 (Escherichia coli, UniProt P0AEN1); experiment: as above; conditions: activity with 0,1 M Cholsäure, 100% = ohne Cholsäure; 10 µM Riboflavin, 100 µM NADPH, 50 mM Tris-HCl (pH 8); read-out: Mit 0, 1 M Cholsäure, U/ml E. coli Zell-Lysate (%)
T4 construct: made in house; host or cells: E. coli (cell lysate)
Method: as §3, §4

[8] = target: 12α-HSDH aus Clostridium sp. group P strain 48-50, Wildtypenzym (Clostridium sp., UniProt P21215); experiment: Product inhibition of 12α-HSDH by 12-ketochenodeoxycholic acid; conditions: loss of activity at 5 % Umsatz; 100 % = activity at 0 % Umsatz (5mM CS); product concentration not given
Description: "Poduktinhibition" der 12α-HSDH beschreibt die Verringerung der enzymatischen Aktivität in Gegenwart eines bei einer durch das Enzym katalysierten enzymatischen Umsetzung gebildeten Produkts. Bei Umsetzung zu CS ist so z.B. eine Inhibition durch 12-Keto-CDCS zu beobachten. Eine "Verringerung der Produktinhibition" beschreibt die verringerte prozentuale Abnahme der Enzymaktivität einer erfindungsgemäß eingesetzten Enzymmutante im Vergleich zu einem Referenzsystem, wie z.B. dem nativen HSDH-Enzym, jeweils bezogen auf die bei 0 % Umsatz (entsprechend 5mM CS) ermittelte Enzymaktivität als 100 %-Aktivitätswert. Diese Verringerung kann, wie im experimentellen Teil, bzw. in der Legende zu Figur 9 beschrieben, bestimmt werden. Verringerungen der Produktinhibition können auch über das Verhältnis der Restaktivitäten von Mutante zu Referenzenzym jeweils bestimmt bei gleichem prozentualen Umsatz, ausgedrückt werden. So kann die ererfindungsgemäß eingesetzte Mutante eine um den Faktor 1,1 bis 100, wie z.B. 1,5 bis 20 oder 2 bis 10 erhöhte Aktivität besitzen.
Die Aktivität wird wie folgt definiert: 1 U des Enzyms entspricht der Enzymmenge, welche die Umsetzung von 1 µmol/min einer 5 mM Cholsäurelösung in KaliumphosphatPuffer (50 mM, pH 8,0) bei Raumtemperatur (d.h. ca. 20 °C-23 °C) katalysiert. […]

Sequence of Reduktase Domäne der CYP102A1 aus Bacillus megaterium (EC 1.6.2.4), SEQ ID NO: 24 (P14779 473-1049): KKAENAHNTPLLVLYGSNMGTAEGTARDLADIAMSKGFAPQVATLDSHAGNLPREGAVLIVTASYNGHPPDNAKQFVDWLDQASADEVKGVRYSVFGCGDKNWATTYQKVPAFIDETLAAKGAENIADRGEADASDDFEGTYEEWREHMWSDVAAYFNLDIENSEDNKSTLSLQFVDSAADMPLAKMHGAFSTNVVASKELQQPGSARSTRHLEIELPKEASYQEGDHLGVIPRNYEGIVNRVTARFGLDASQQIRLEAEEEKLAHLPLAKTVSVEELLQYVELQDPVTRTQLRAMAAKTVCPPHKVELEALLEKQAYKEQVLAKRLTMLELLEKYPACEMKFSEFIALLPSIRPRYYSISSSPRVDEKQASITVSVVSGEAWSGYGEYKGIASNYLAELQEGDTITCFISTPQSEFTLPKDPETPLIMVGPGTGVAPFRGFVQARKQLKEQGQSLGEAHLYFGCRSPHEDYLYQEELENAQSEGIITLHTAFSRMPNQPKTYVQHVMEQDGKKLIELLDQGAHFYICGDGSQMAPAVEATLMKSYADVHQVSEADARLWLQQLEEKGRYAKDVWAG
T2 sequence (P28861 whole entry): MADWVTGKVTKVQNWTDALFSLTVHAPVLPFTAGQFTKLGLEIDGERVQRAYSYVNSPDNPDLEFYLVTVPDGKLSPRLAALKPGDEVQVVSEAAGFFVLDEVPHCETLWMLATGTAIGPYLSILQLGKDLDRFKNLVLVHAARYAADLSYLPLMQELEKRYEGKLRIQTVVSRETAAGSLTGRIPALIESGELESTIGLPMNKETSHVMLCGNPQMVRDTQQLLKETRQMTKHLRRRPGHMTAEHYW
T4 sequence (P0AEN1 whole entry): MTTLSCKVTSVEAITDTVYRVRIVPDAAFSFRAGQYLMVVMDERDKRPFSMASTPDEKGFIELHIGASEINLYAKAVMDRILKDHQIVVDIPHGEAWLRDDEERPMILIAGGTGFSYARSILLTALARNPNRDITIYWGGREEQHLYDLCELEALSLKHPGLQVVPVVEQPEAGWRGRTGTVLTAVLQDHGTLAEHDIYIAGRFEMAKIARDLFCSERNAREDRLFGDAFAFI
T3 sequence (P38038 whole entry): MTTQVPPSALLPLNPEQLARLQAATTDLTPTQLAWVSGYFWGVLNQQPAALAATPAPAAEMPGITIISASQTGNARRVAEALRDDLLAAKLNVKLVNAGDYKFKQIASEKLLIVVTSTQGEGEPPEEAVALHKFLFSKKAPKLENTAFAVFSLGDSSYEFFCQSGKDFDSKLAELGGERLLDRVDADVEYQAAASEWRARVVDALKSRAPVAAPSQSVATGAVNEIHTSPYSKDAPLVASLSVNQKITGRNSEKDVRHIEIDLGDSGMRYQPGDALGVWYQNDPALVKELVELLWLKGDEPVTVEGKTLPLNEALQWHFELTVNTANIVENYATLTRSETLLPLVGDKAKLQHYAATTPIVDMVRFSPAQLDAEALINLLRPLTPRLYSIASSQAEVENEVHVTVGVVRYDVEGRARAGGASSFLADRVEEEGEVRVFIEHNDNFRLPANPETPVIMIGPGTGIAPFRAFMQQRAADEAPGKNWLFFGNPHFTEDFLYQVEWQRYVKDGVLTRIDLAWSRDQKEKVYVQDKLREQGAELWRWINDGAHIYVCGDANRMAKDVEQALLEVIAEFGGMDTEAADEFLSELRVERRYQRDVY
Sequence of 12α-HSDH aus Clostridium sp. group P strain 48-50, Wildtypenzym (P21215 whole entry): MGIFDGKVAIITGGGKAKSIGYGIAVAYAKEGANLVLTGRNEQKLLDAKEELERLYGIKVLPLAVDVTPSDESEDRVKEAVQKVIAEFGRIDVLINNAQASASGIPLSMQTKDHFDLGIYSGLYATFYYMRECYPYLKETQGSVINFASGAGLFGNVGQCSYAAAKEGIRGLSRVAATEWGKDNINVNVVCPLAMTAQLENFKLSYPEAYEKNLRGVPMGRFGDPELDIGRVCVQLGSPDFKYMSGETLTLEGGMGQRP

Structure (SMILES) | activity at 100000 µM [1] [%] | activity at 100000 µM [2] [%] | Mit 0, 1 M Cholsäure, U/mg Protein (%) [3] | activity at 100000 µM [4] [%] | Mit 0, 1 M Cholsäure, U/ml E. coli Zell-Lysate (%) [5] | Mit 0, 1 M Cholsäure, U/ml E. coli Zell-Lysate (%) [6] | activity at 100000 µM [7] [%] | Verlust (Produktinhibierung durch 12-Ketochenodesoxycholsäure) [8] [%]
C[C@H](CCC(=O)O)[C@H]1CC[C@H]2[C@@H]3[C@H](O)C[C@@H]4C[C@H](O)CC[C@]4(C)[C@H]3C[C@H](O)[C@]12C [Cholsäure] | 15 | 93 | 0,26 (3 %) | 35 | 22,1 (155 %) | 2,1 (6 %) | 5 | 
C[C@H](CCC(=O)O)[C@H]1CC[C@H]2[C@@H]3[C@H](O)C[C@@H]4C[C@H](O)CC[C@]4(C)[C@H]3CC(=O)[C@]12C [12-Ketochenodesoxycholsäure] |  |  |  |  |  |  |  | 60
